# Laboratory results: the supplement of paper PMC10307832
# Tests used:
# Experiment in all cases: relative viability (nuclei count vs DMSO), 5 days (fraction); higher = more cells survive
# [1] = tested on: NCI-H520
# Outline: (§1)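 Relative viability was taken as the ratio of nuclei in treated wells to nuclei in vehicle wells. Lung cancer cell lines in 1536-well plates received compounds by pin tool one day after seeding, either one drug alone or a fixed anchor-drug dose plus five library-drug doses (not always all listed) in √10 steps. Nuclei were counted on 4× images after 5 days of treatment, and values are medians of duplicate plates.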
# [2] = tested on: NCI-H661
# Outline: as §1
# [3] = tested on: NCI-H1651
# Outline: as §1
# [4] = tested on: NCI-H1792
# Outline: as §1
# [5] = tested on: NCI-H441
# Outline: as §1
# [6] = tested on: SW 900
# Outline: as §1
# [7] = tested on: NCI-H3122
# Outline: as §1
# [8] = tested on: SK-MES-1
# Outline: as §1
# [9] = tested on: LCLC-103H
# Outline: as §1
# [10] = tested on: NCI-H2347
# Outline: as §1
# [11] = tested on: NCI-H1355
# Outline: as §1
# [12] = tested on: NCI-H596
# Outline: as §1
# [13] = tested on: NCI-H522
# Outline: as §1
# [14] = tested on: PC-14
# Outline: as §1
# [15] = tested on: NCI-H460
# Outline: as §1
# [16] = tested on: NCI-H1915
# Outline: as §1
# [17] = tested on: RERF-LC-KJ
# Outline: as §1
# [18] = tested on: NCI-H727
# Outline: as §1
# [19] = tested on: NCI-H1563
# Outline: as §1
# [20] = tested on: NCI-H1755
# Outline: as §1
# [21] = tested on: LXF-289
# Outline: as §1
# [22] = tested on: NCI-H322M
# Outline: as §1
structure (smiles),measurement,setting,value
Nc1ccn([C@@H]2O[C@H](CO)[C@@H](O)[C@@H]2O)c(=O)n1 [Cytarabine] + COc1cccc2cc(-c3nc([C@H]4CC[C@H](C(=O)O)CC4)n4ncnc(N)c34)[nH]c12 [OSI-027] (partner 0.5 µM),relative viability,[1]; first compound 0.005 µM,0.25
same,relative viability,[1]; first compound 0.01581 µM,0.262
same,relative viability,[1]; first compound 0.05 µM,0.33
same,relative viability,[1]; first compound 0.1581 µM,0.212
same,relative viability,[1]; first compound 0.5 µM,0.16
same,relative viability,[2]; first compound 0.005 µM,0.559
same,relative viability,[2]; first compound 0.01581 µM,0.617
same,relative viability,[2]; first compound 0.05 µM,0.545
same,relative viability,[2]; first compound 0.1581 µM,0.413
same,relative viability,[2]; first compound 0.5 µM,0.363
same,relative viability,[3]; first compound 0.005 µM,0.792
same,relative viability,[3]; first compound 0.01581 µM,0.675
same,relative viability,[3]; first compound 0.05 µM,0.81
same,relative viability,[3]; first compound 0.1581 µM,0.442
same,relative viability,[3]; first compound 0.5 µM,0.298
same,relative viability,[4]; first compound 0.005 µM,0.757
same,relative viability,[4]; first compound 0.01581 µM,0.664
same,relative viability,[4]; first compound 0.05 µM,0.738
same,relative viability,[4]; first compound 0.1581 µM,0.615
same,relative viability,[4]; first compound 0.5 µM,0.427
same,relative viability,[5]; first compound 0.005 µM,0.629
same,relative viability,[5]; first compound 0.01581 µM,0.638
same,relative viability,[5]; first compound 0.05 µM,0.617
same,relative viability,[5]; first compound 0.1581 µM,0.422
same,relative viability,[5]; first compound 0.5 µM,0.291
same,relative viability,[6]; first compound 0.005 µM,0.396
same,relative viability,[6]; first compound 0.01581 µM,0.34
same,relative viability,[6]; first compound 0.05 µM,0.335
same,relative viability,[6]; first compound 0.1581 µM,0.145
same,relative viability,[6]; first compound 0.5 µM,0.136
same,relative viability,[7]; first compound 0.005 µM,0.953
same,relative viability,[7]; first compound 0.01581 µM,0.873
same,relative viability,[7]; first compound 0.05 µM,0.811
same,relative viability,[7]; first compound 0.1581 µM,0.461
same,relative viability,[7]; first compound 0.5 µM,0.125
same,relative viability,[8]; first compound 0.005 µM,0.343
same,relative viability,[8]; first compound 0.01581 µM,0.282
same,relative viability,[8]; first compound 0.05 µM,0.18
same,relative viability,[8]; first compound 0.1581 µM,0.297
same,relative viability,[8]; first compound 0.5 µM,0.267
same,relative viability,[9]; first compound 0.005 µM,0.412
same,relative viability,[9]; first compound 0.01581 µM,0.411
same,relative viability,[9]; first compound 0.05 µM,0.511
same,relative viability,[9]; first compound 0.1581 µM,0.418
same,relative viability,[9]; first compound 0.5 µM,0.473
same,relative viability,[10]; first compound 0.005 µM,0.401
same,relative viability,[10]; first compound 0.01581 µM,0.282
same,relative viability,[10]; first compound 0.05 µM,0.336
same,relative viability,[10]; first compound 0.1581 µM,0.268
same,relative viability,[10]; first compound 0.5 µM,0.327
same,relative viability,[11]; first compound 0.005 µM,0.41
same,relative viability,[11]; first compound 0.01581 µM,0.402
same,relative viability,[11]; first compound 0.05 µM,0.31
same,relative viability,[11]; first compound 0.1581 µM,0.2
same,relative viability,[11]; first compound 0.5 µM,0.21
same,relative viability,[12]; first compound 0.005 µM,0.682
same,relative viability,[12]; first compound 0.01581 µM,0.702
same,relative viability,[12]; first compound 0.05 µM,0.592
same,relative viability,[12]; first compound 0.1581 µM,0.418
same,relative viability,[12]; first compound 0.5 µM,0.317
same,relative viability,[13]; first compound 0.005 µM,0.717
same,relative viability,[13]; first compound 0.01581 µM,0.599
same,relative viability,[13]; first compound 0.05 µM,0.395
same,relative viability,[13]; first compound 0.1581 µM,0.48
same,relative viability,[13]; first compound 0.5 µM,0.539
same,relative viability,[14]; first compound 0.005 µM,0.691
same,relative viability,[14]; first compound 0.01581 µM,0.455
same,relative viability,[14]; first compound 0.05 µM,0.71
same,relative viability,[14]; first compound 0.1581 µM,0.166
same,relative viability,[14]; first compound 0.5 µM,0.115
same,relative viability,[15]; first compound 0.005 µM,0.384
same,relative viability,[15]; first compound 0.01581 µM,0.486
same,relative viability,[15]; first compound 0.05 µM,0.301
same,relative viability,[15]; first compound 0.1581 µM,0.055
same,relative viability,[15]; first compound 0.5 µM,0.0359
same,relative viability,[16]; first compound 0.005 µM,0.657
same,relative viability,[16]; first compound 0.01581 µM,0.57
same,relative viability,[16]; first compound 0.05 µM,0.554
same,relative viability,[16]; first compound 0.1581 µM,0.372
same,relative viability,[16]; first compound 0.5 µM,0.338
same,relative viability,[17]; first compound 0.005 µM,0.461
same,relative viability,[17]; first compound 0.01581 µM,0.477
same,relative viability,[17]; first compound 0.05 µM,0.5
same,relative viability,[17]; first compound 0.1581 µM,0.391
same,relative viability,[17]; first compound 0.5 µM,0.297
same,relative viability,[18]; first compound 0.005 µM,0.589
same,relative viability,[18]; first compound 0.01581 µM,0.558
same,relative viability,[18]; first compound 0.05 µM,0.491
same,relative viability,[18]; first compound 0.1581 µM,0.38
same,relative viability,[18]; first compound 0.5 µM,0.347
same,relative viability,[19]; first compound 0.005 µM,0.691
same,relative viability,[19]; first compound 0.01581 µM,0.797
same,relative viability,[19]; first compound 0.05 µM,0.773
same,relative viability,[19]; first compound 0.1581 µM,0.583
same,relative viability,[19]; first compound 0.5 µM,0.628
same,relative viability,[20]; first compound 0.005 µM,0.574
same,relative viability,[20]; first compound 0.01581 µM,0.578
same,relative viability,[20]; first compound 0.05 µM,0.561
same,relative viability,[20]; first compound 0.1581 µM,0.318
same,relative viability,[20]; first compound 0.5 µM,0.309
same,relative viability,[21]; first compound 0.005 µM,0.671
same,relative viability,[21]; first compound 0.01581 µM,0.634
same,relative viability,[21]; first compound 0.05 µM,0.419
same,relative viability,[21]; first compound 0.1581 µM,0.237
same,relative viability,[21]; first compound 0.5 µM,0.113
same,relative viability,[22]; first compound 0.005 µM,0.455
same,relative viability,[22]; first compound 0.01581 µM,0.392
same,relative viability,[22]; first compound 0.05 µM,0.325
same,relative viability,[22]; first compound 0.1581 µM,0.377
same,relative viability,[22]; first compound 0.5 µM,0.269
